From patent US8901118B2, “Compounds and methods for kinase modulation, and indications therefor” (Plexxikon Inc., priority 2010, dated 2014)
pIC50: −log10 of the molar value.

Tests used:
[1] = system: Osteoclast precursor cells; assay: Osteoclast differentiation assay (acid phosphatase readout); format: cell-based
Procedure: Further, an osteoclast differentiation assay is used to assess the efficacy of Fms inhibitors for treating bone disease such as osteoarthritis. On day 0, Osteoclast Medium BulletKit (Lonza catalog #PT-8001, containing Media, FBS, L-Glutamine, PenStrep, RANKL, and M-CSF) media is thawed and the FBS, L-glutamine and PenStrep from the kit is added to 100 mL of Osteoclast Precursor Basal medium to provide the Osteoclast Precursor Growth Medium (OPGM). This is warmed to 37° C. Osteoclast precursor cells (Lonza catalog #2T-110) frozen in cryovial are warmed to 37° C. and transferred to a 50 mL conical tube. The cryovial is rinsed with OPGM and added dropwise to the conical tube of cells with swirling, then the volume is adjusted to 20-30 mL with addition of OPGM. The cells are centrifuged at 200×g for 15 minutes at room temperature and all but approximately 3 mL of supernatant is removed to a new conical tube. The cells are suspended in the remaining supernatant and the volume is adjusted to 10-15 mL with OPGM added dropwise with swirling. The cells are centrifuged at 200×g for 15 minutes at room temperature and all but approximately 1 mL of supernatant is removed. The cells are resuspended in the remaining supernatant, counted, and the volume adjusted with an appropriate amount of OPGM to provide approximately 1×10^5 cells/mL. A 0.1 mL aliquot of cells is added to each well of a 96-well plate. Compound to be tested is prepared in DMSO for plating at a high concentration of 2.5 mM, with 8 point 1:3 serial dilutions. A 1 μL aliquot of each compound dilution is added to a 96 well v-bottom polypropylene plate and 0.124 mL of OPGM is added to the compound. Then 50 μL at of the compound in OPGM is added to the osteoclast precursor cells in 96-well plate (providing highest test concentration of 5 μM). RANKL (2 μg) from the BulletKit is reconstituted in 1 mL of OPGM, then vortexed and centrifuged briefly. A 792 μL at aliquot of RANKL is added to 6 mL of OPGM and 50 μL at is added to low control wells. Then 76.6 μL M-CSF (10 μg/mL) from the BulletKit is added to the remaining 5.8 mL of OPGM/RANKL solution (4×RANKL/M-CSF/OPGM). A 50 μL at aliquot of this is added to the remaining wells, and the remainder is stored at 4° C. for later use. The plate is incubated at 37° C. for 6 days, then the remaining OPGM/RANKL/M-CSF solution is warmed to 37° C. The remaining approximately 198 μL is combined with 6 mL of OPGM. The media is aspirated from the osteoclast wells and 100 μL of RANKL/OPGM is added to the low controls. The remaining RANKL/OPGM is combined with the approximately 18.5 μL of remaining M-CSF. The remaining 4×RANKL/M-CSF/OPGM from day 0 is diluted to 1× and combined with the freshly prepared solution. A 0.1 mL aliquot of this is added to each osteoclast well and incubated for 37° C. for 1 day. The Acid Phosphatase kit (Cayman Chemical catalog #10008051) is warmed to room temperature. The assay buffer is diluted 5 mL with 45 mL of water. For each plate, two substrate tablets are dissolved in 4.5 mL of the assay buffer, mixing by vortex to break up the tablet. Stop solution is diluted 12 mL with 36 mL of water. In a tissue culture hood, 20 μL of each osteoclast well supernatant is transferred to a 96 well plate. A 30 μL aliquot of the substrate solution is added to each well and incubated at 37° C. for 20 minutes, then added 100 μL stop solution to each well. The absorbance of each well is read at 405 nm on Safire plate reader. The absorbance reading is plotted vs. concentration to provide the IC50 for each compound.

[2] = Relative solubility by turbidity in aqueous buffers (pH 1.5, 4.5, 6.8, 7.4); format: physicochemical; conditions: for turbidity threshold (L, M, H) 1.4: pH 1.5 (SGF); for turbidity threshold (L, M, H) 4.5: pH 4.5 (SIF); for turbidity threshold (L, M, H) 6.8: pH 6.8 (SIF); for turbidity threshold (L, M, H) 7.4: pH 7.4 (HEPES)
In short: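 Twofold DMSO dilutions of a 25 mM stock were spiked into SGF (0.5M NaCl, pH 1.5), SIF (0.05M NaH2PO4, pH 4.5 and 6.8) or HEPES buffer (10 mM HEPES, 150 mM NaCl, pH 7.4). Absorbance was read at 490, 535 and 650 nm. The endpoint is the concentration crossing O.D. 0.01, averaged across wavelengths.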

FC1(F)CCC(Nc2ncc(Cc3c[nH]c4ncc(Cl)cc34)cn2)CC1 [Compound P-3004]
pIC50 [1]: > 7.00
turbidity threshold (L, M, H) 1.4 [2]: H (high solubility if the threshold concentration is >250 μm)
turbidity threshold (L, M, H) 4.5 [2]: L (low solubility if the threshold concentration is <31.3 μM)
turbidity threshold (L, M, H) 6.8 [2]: L (low solubility if the threshold concentration is <31.3 μM)
turbidity threshold (L, M, H) 7.4 [2]: L (low solubility if the threshold concentration is <31.3 μM)

Clc1cnc2[nH]cc(Cc3cnc(NC4CCCCCC4)nc3)c2c1 [Compound P-3006, [5-(5-Chloro-1H-pyrrolo[2,3-b]pyridin-3-ylmethyl)-pyrimidin-2-yl]-cycloheptyl-amine]
pIC50 [1]: > 7.00

CCOc1ccc(Nc2ncc(Cc3c[nH]c4ncc(C)cc34)cn2)cn1 [Compound P-3027, (6-Ethoxy-pyridin-3-yl)-[5-(5-methyl-1H-pyrrolo[2,3-b]pyridin-3-ylmethyl)-pyrimidin-2-yl]-amine]
pIC50 [1]: > 7.00

CCn1cc(Nc2ncc(Cc3c[nH]c4ncc(C)cc34)cn2)cn1 [Compound P-3036, (1-Ethyl-1H-pyrazol-4-yl)-[5-(5-methyl-1H-pyrrolo[2,3-b]pyridin-3-ylmethyl)-pyrimidin-2-yl]-amine]
pIC50 [1]: > 7.00

Cc1cnc2[nH]cc(Cc3ccc(Nc4ccc(C)nc4)nc3F)c2c1 [Compound P-3041, [6-Fluoro-5-(5-methyl-1H-pyrrolo[2,3-b]pyridin-3-ylmethyl)-pyridin-2-yl]-(6-methyl-pyridin-3-yl)-amine]
pIC50 [1]: > 7.00

Cc1ccc(Nc2ccc(Cc3c[nH]c4ncc(Cl)cc34)c(F)n2)cn1 [Compound P-3042, [5-(5-Chloro-1H-pyrrolo[2,3-b]pyridin-3-ylmethyl)-6-fluoro-pyridin-2-yl]-(6-methyl-pyridin-3-yl)-amine]
pIC50 [1]: > 7.00

COc1ccc(Nc2ccc(C(=O)c3c[nH]c4ncnc(C5CC5)c34)c(F)n2)cn1 [Compound P-4022, (4-cyclopropyl-7H-pyrrolo[2,3-d]pyrimidin-5-yl)-[2-fluoro-6-(6-methoxy-pyridin-3-ylamino)-pyridin-3-yl]-methanone]
turbidity threshold (L, M, H) 1.4 [2]: H (high solubility if the threshold concentration is >250 μm)
turbidity threshold (L, M, H) 4.5 [2]: M (moderate solubility if the threshold concentration is 31.3 μM to 250 μM)
turbidity threshold (L, M, H) 6.8 [2]: L (low solubility if the threshold concentration is <31.3 μM)
turbidity threshold (L, M, H) 7.4 [2]: L (low solubility if the threshold concentration is <31.3 μM)

CCOc1ccc(Nc2ccc(C(=O)c3c[nH]c4ncnc(OC)c34)c(F)n2)cn1 [Compound P-4024, [6-(6-Ethoxy-pyridin-3-ylamino)-2-fluoro-pyridin-3-yl]-(4-methoxy-7H-pyrrolo[2,3-d]pyrimidin-5-yl)-methanone]
turbidity threshold (L, M, H) 1.4 [2]: M (moderate solubility if the threshold concentration is 31.3 μM to 250 μM)
turbidity threshold (L, M, H) 4.5 [2]: L (low solubility if the threshold concentration is <31.3 μM)
turbidity threshold (L, M, H) 6.8 [2]: M (moderate solubility if the threshold concentration is 31.3 μM to 250 μM)
turbidity threshold (L, M, H) 7.4 [2]: M (moderate solubility if the threshold concentration is 31.3 μM to 250 μM)

CCOc1ncnc2[nH]cc(C(=O)c3ccc(Nc4ccc(OC)nc4)nc3F)c12 [Compound P-4025, (4-Ethoxy-7H-pyrrolo[2,3-d]pyrimidin-5-yl)-[2-fluoro-6-(6-methoxy-pyridin-3-ylamino)-pyridin-3-yl]-methanone]
turbidity threshold (L, M, H) 1.4 [2]: M (moderate solubility if the threshold concentration is 31.3 μM to 250 μM)
turbidity threshold (L, M, H) 4.5 [2]: L (low solubility if the threshold concentration is <31.3 μM)
turbidity threshold (L, M, H) 6.8 [2]: L (low solubility if the threshold concentration is <31.3 μM)
turbidity threshold (L, M, H) 7.4 [2]: L (low solubility if the threshold concentration is <31.3 μM)

CCn1cc(Nc2ccc(Cc3c[nH]c4ncnc(C5CC5)c34)c(F)n2)cn1 [Compound P-4036, [5-(4-Cyclopropyl-7H-pyrrolo[2,3-d]pyrimidin-5-ylmethyl)-6-fluoro-pyridin-2-yl]-(1-ethyl-1H-pyrazol-4-yl)-amine]
turbidity threshold (L, M, H) 1.4 [2]: H (high solubility if the threshold concentration is >250 μm)
turbidity threshold (L, M, H) 4.5 [2]: M (moderate solubility if the threshold concentration is 31.3 μM to 250 μM)
turbidity threshold (L, M, H) 6.8 [2]: L (low solubility if the threshold concentration is <31.3 μM)
turbidity threshold (L, M, H) 7.4 [2]: L (low solubility if the threshold concentration is <31.3 μM)

CCn1cc(Nc2ccc(C(=O)c3c[nH]c4ncnc(C5CC5)c34)c(F)n2)cn1 [Compound P-4037, (4-Cyclopropyl-7H-pyrrolo[2,3-d]pyrimidin-5-yl)-[6-(1-ethyl-1H-pyrazol-4-ylamino)-2-fluoro-pyridin-3-yl]-methanone]
turbidity threshold (L, M, H) 1.4 [2]: H (high solubility if the threshold concentration is >250 μm)
turbidity threshold (L, M, H) 4.5 [2]: M (moderate solubility if the threshold concentration is 31.3 μM to 250 μM)
turbidity threshold (L, M, H) 6.8 [2]: M (moderate solubility if the threshold concentration is 31.3 μM to 250 μM)
turbidity threshold (L, M, H) 7.4 [2]: M (moderate solubility if the threshold concentration is 31.3 μM to 250 μM)

Fc1nc(NC2CCC(F)(F)CC2)ccc1Cc1c[nH]c2ncnc(NCC(F)(F)F)c12 [Compound P-4128, 5-[[6-[(4,4-difluorocyclohexyl)amino]-2-fluoro-3-pyridyl]methyl]-N-(2,2,2-trifluoroethyl)-7H-pyrrolo[2,3-d]pyrimidin-4-amine]
turbidity threshold (L, M, H) 1.4 [2]: H (high solubility if the threshold concentration is >250 μm)
turbidity threshold (L, M, H) 4.5 [2]: M (moderate solubility if the threshold concentration is 31.3 μM to 250 μM)
turbidity threshold (L, M, H) 6.8 [2]: M (moderate solubility if the threshold concentration is 31.3 μM to 250 μM)
turbidity threshold (L, M, H) 7.4 [2]: M (moderate solubility if the threshold concentration is 31.3 μM to 250 μM)

Fc1nc(NC2CCC(F)(F)CC2)ccc1Cc1c[nH]c2ncnc(NC3CC3)c12 [Compound P-4129, N-cyclopropyl-5-[[6-[(4,4-difluorocyclohexyl)amino]-2-fluoro-3-pyridyl]methyl]-7H-pyrrolo[2,3-d]pyrimidin-4-amine]
turbidity threshold (L, M, H) 1.4 [2]: H (high solubility if the threshold concentration is >250 μm)
turbidity threshold (L, M, H) 4.5 [2]: M (moderate solubility if the threshold concentration is 31.3 μM to 250 μM)
turbidity threshold (L, M, H) 6.8 [2]: M (moderate solubility if the threshold concentration is 31.3 μM to 250 μM)
turbidity threshold (L, M, H) 7.4 [2]: M (moderate solubility if the threshold concentration is 31.3 μM to 250 μM)

Fc1nc(Nc2ccc(C3CC3)nc2)ccc1Cc1c[nH]c2ncnc(NCC(F)(F)F)c12 [Compound P-4130, 5-[[6-[(6-cyclopropyl-3-pyridyl)amino]-2-fluoro-3-pyridyl]methyl]-N-(2,2,2-trifluoroethyl)-7H-pyrrolo[2,3-d]pyrimidin-4-amine]
turbidity threshold (L, M, H) 1.4 [2]: H (high solubility if the threshold concentration is >250 μm)
turbidity threshold (L, M, H) 4.5 [2]: M (moderate solubility if the threshold concentration is 31.3 μM to 250 μM)
turbidity threshold (L, M, H) 6.8 [2]: M (moderate solubility if the threshold concentration is 31.3 μM to 250 μM)
turbidity threshold (L, M, H) 7.4 [2]: M (moderate solubility if the threshold concentration is 31.3 μM to 250 μM)
